Data: ChEMBL document CHEMBL2203143, “Synthesis and antiproliferative activities of ottelione a analogues” (ACS Med Chem Lett, 2012)
Activity calls are given as the source filed them. The rule behind the calls is not given here.

These compounds were tested against T1, Tubulin (Sus scrofa) (UniProt P02554+P02550) (assay: Displacement of [3H]colchicine from tubulin in pig brain at 10 uM after 16 hrs by scintillation proximity assay). Conditions: not given.
T1 sequence (P02550 whole entry, looked up): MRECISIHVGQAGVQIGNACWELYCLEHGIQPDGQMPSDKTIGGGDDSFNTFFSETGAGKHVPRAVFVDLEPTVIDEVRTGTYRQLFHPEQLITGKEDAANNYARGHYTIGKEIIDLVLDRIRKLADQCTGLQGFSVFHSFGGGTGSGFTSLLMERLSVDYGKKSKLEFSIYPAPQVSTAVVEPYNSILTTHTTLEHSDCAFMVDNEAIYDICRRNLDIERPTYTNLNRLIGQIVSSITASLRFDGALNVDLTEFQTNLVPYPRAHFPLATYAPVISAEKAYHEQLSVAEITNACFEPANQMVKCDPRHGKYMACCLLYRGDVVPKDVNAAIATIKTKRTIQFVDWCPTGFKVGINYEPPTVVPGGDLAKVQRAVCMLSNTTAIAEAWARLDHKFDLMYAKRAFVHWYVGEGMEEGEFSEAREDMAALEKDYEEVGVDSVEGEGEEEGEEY
T1 sequence (P02554 whole entry, looked up): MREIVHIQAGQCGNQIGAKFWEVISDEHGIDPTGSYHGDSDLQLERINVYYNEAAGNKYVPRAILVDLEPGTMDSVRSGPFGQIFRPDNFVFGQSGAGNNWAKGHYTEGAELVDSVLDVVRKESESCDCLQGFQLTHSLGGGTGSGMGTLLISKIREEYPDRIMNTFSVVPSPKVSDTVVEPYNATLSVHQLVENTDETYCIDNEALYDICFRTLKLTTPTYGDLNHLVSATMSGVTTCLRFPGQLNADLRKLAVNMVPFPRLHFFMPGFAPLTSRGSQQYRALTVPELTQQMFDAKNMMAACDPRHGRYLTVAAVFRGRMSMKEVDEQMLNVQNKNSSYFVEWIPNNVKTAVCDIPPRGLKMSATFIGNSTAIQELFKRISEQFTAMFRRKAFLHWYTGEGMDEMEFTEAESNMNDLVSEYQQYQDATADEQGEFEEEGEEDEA

Row | inhibition [%] | SMILES
1 | 37.3 | C=C1C=CC(=O)[C@@H]2[C@H](Cc3ccc(O)c(F)c3)CC[C@H]12 (racemic)
2 | 8.93 | C=C1C=CC(=O)[C@@H]2[C@H](Cc3cc(OC)c(OC)c(OC)c3)CC[C@H]12 (racemic)
3 | 97.1 | C=C1C=CC(=O)[C@@H]2[C@H](Cc3ccc(OC)c(F)c3)CC[C@H]12 (racemic)
4 | 96.1 | CC=C1C=CC(=O)[C@@H]2[C@H](Cc3ccc(OC)c(O)c3)CC[C@H]12 (racemic)
5 | 61.7 | C=C1C=CC(=O)[C@@H]2[C@H](Cc3ccc(F)c(F)c3)CC[C@H]12 (racemic)
6 | 95.8 | C=C1C=CC(=O)[C@@H]2[C@H](Cc3ccc(OC)c(O)c3)CC[C@H]12 (racemic)
7 | 98.3 | C=C[C@@H]1C[C@@H](Cc2ccc(OC)c(O)c2)[C@H]2C(=O)C=CC(=C)[C@H]21 (racemic)
8 | 69.3 | C=C1C=CC(=O)[C@@H]2[C@H](Cc3ccc(OCOC)cc3)CC[C@H]12 (racemic)
9 | 68.9 | C=C1C=CC(=O)[C@@H]2[C@H](Cc3ccc(OCOC)c(F)c3)CC[C@H]12 (racemic)
10 | 39.2 | COc1ccc(C[C@@H]2CC[C@@H]3CC=CC(=O)[C@@H]32)cc1O (racemic)
11 | 71.6 | C=C1C=CC(=O)[C@@H]2[C@H](Cc3ccc(O)cc3)CC[C@H]12 (racemic)
12 | 43.2 | C=C1C=CC(=O)[C@@H]2[C@H](Cc3ccccc3)CC[C@H]12 (racemic)

What follows are compounds tested on COLO 205 (assay: Ratio of ottelione A IC50 to compound IC50 for human COLO205 cells after 72 hrs by CellTiter96 assay). Conditions: not given.
Type: functional

Row | SMILES | Ratio IC50
13 | C=C1C=CC(=O)[C@@H]2[C@H](Cc3ccc(OC)c(F)c3)CC[C@H]12 (racemic) | 6

The compounds below were run on NCI-H460 (assay: Ratio of ottelione A IC50 to compound IC50 for human NCI-H460 cells after 72 hrs by CellTiter96 assay). Conditions: not given.
Type: functional

Row | SMILES | Ratio IC50
14 | C=C1C=CC(=O)[C@@H]2[C@H](Cc3ccc(OC)c(F)c3)CC[C@H]12 (racemic) | 6

These compounds were tested on NCI-H460 (assay: Antiproliferative activity against human NCI-H460 cells assessed as cell viability after 72 hrs by CellTiter96 assay). Conditions: NCI-H460, 72 h.
Type: functional, cell-based

Row | IC50 [nM] | SMILES
15 | 229 | C=C1C=CC(=O)[C@@H]2[C@H](Cc3ccc(O)c(F)c3)CC[C@H]12 (racemic)
16 | > 1000 | C=C1C=CC(=O)[C@@H]2[C@H](Cc3cc(OC)c(OC)c(OC)c3)CC[C@H]12 (racemic)
17 | 2.62 | C=C1C=CC(=O)[C@@H]2[C@H](Cc3ccc(OC)c(F)c3)CC[C@H]12 (racemic)
18 | 24.6 | CC=C1C=CC(=O)[C@@H]2[C@H](Cc3ccc(OC)c(O)c3)CC[C@H]12 (racemic)
19 | 511 | C=C1C=CC(=O)[C@@H]2[C@H](Cc3ccc(F)c(F)c3)CC[C@H]12 (racemic)
20 | 16 | C=C1C=CC(=O)[C@@H]2[C@H](Cc3ccc(OC)c(O)c3)CC[C@H]12 (racemic)
21 | 14.5 | C=C[C@@H]1C[C@@H](Cc2ccc(OC)c(O)c2)[C@H]2C(=O)C=CC(=C)[C@H]21 (racemic)
22 | 226 | C=C1C=CC(=O)[C@@H]2[C@H](Cc3ccc(OCOC)cc3)CC[C@H]12 (racemic)
23 | 106 | C=C1C=CC(=O)[C@@H]2[C@H](Cc3ccc(OCOC)c(F)c3)CC[C@H]12 (racemic)
24 | > 1000 | COc1ccc(C[C@@H]2CC[C@@H]3CC=CC(=O)[C@@H]32)cc1O (racemic)
25 | 77.6 | C=C1C=CC(=O)[C@@H]2[C@H](Cc3ccc(O)cc3)CC[C@H]12 (racemic)
26 | 678 | C=C1C=CC(=O)[C@@H]2[C@H](Cc3ccccc3)CC[C@H]12 (racemic)

The compounds below were run on MCF7 (assay: Antiproliferative activity against human MCF7 cells assessed as cell viability after 72 hrs by CellTiter96 assay). Conditions: MCF7, 72 h.
Type: functional, cell-based

Row | IC50 [nM] | SMILES
27 | 147 | C=C1C=CC(=O)[C@@H]2[C@H](Cc3ccc(O)c(F)c3)CC[C@H]12 (racemic)
28 | > 1000 | C=C1C=CC(=O)[C@@H]2[C@H](Cc3cc(OC)c(OC)c(OC)c3)CC[C@H]12 (racemic)
29 | 0.13 | C=C1C=CC(=O)[C@@H]2[C@H](Cc3ccc(OC)c(F)c3)CC[C@H]12 (racemic)
30 | 26.3 | CC=C1C=CC(=O)[C@@H]2[C@H](Cc3ccc(OC)c(O)c3)CC[C@H]12 (racemic)
31 | 233 | C=C1C=CC(=O)[C@@H]2[C@H](Cc3ccc(F)c(F)c3)CC[C@H]12 (racemic)
32 | 3.73 | C=C1C=CC(=O)[C@@H]2[C@H](Cc3ccc(OC)c(O)c3)CC[C@H]12 (racemic)
33 | 1.17 | C=C[C@@H]1C[C@@H](Cc2ccc(OC)c(O)c2)[C@H]2C(=O)C=CC(=C)[C@H]21 (racemic)
34 | 63.6 | C=C1C=CC(=O)[C@@H]2[C@H](Cc3ccc(OCOC)cc3)CC[C@H]12 (racemic)
35 | 77.2 | C=C1C=CC(=O)[C@@H]2[C@H](Cc3ccc(OCOC)c(F)c3)CC[C@H]12 (racemic)
36 | > 1000 | COc1ccc(C[C@@H]2CC[C@@H]3CC=CC(=O)[C@@H]32)cc1O (racemic)
37 | 33.8 | C=C1C=CC(=O)[C@@H]2[C@H](Cc3ccc(O)cc3)CC[C@H]12 (racemic)
38 | 260 | C=C1C=CC(=O)[C@@H]2[C@H](Cc3ccccc3)CC[C@H]12 (racemic)

The compounds below were run on A-375 (assay: Antiproliferative activity against human A375 cells assessed as cell viability after 72 hrs by CellTiter96 assay). Conditions: A-375, 72 h.
Type: functional, cell-based

Row | IC50 [nM] | SMILES
39 | 98.4 | C=C1C=CC(=O)[C@@H]2[C@H](Cc3ccc(O)c(F)c3)CC[C@H]12 (racemic)
40 | > 1000 | C=C1C=CC(=O)[C@@H]2[C@H](Cc3cc(OC)c(OC)c(OC)c3)CC[C@H]12 (racemic)
41 | 1.68 | C=C1C=CC(=O)[C@@H]2[C@H](Cc3ccc(OC)c(F)c3)CC[C@H]12 (racemic)
42 | 9.2 | CC=C1C=CC(=O)[C@@H]2[C@H](Cc3ccc(OC)c(O)c3)CC[C@H]12 (racemic)
43 | 222 | C=C1C=CC(=O)[C@@H]2[C@H](Cc3ccc(F)c(F)c3)CC[C@H]12 (racemic)
44 | 1.07 | C=C1C=CC(=O)[C@@H]2[C@H](Cc3ccc(OC)c(O)c3)CC[C@H]12 (racemic)
45 | 0.4 | C=C[C@@H]1C[C@@H](Cc2ccc(OC)c(O)c2)[C@H]2C(=O)C=CC(=C)[C@H]21 (racemic)
46 | 77.4 | C=C1C=CC(=O)[C@@H]2[C@H](Cc3ccc(OCOC)cc3)CC[C@H]12 (racemic)
47 | 40 | C=C1C=CC(=O)[C@@H]2[C@H](Cc3ccc(OCOC)c(F)c3)CC[C@H]12 (racemic)
48 | 914 | COc1ccc(C[C@@H]2CC[C@@H]3CC=CC(=O)[C@@H]32)cc1O (racemic)
49 | 30.8 | C=C1C=CC(=O)[C@@H]2[C@H](Cc3ccc(O)cc3)CC[C@H]12 (racemic)
50 | 237 | C=C1C=CC(=O)[C@@H]2[C@H](Cc3ccccc3)CC[C@H]12 (racemic)

These compounds were tested on COLO 205 (assay: Antiproliferative activity against human COLO205 cells assessed as cell viability after 72 hrs by CellTiter96 assay). Conditions: COLO 205, 72 h.
Type: functional, cell-based

Row | IC50 [nM] | SMILES
51 | 3000 | C=C1C=CC(=O)[C@@H]2[C@H](Cc3ccc(O)c(F)c3)CC[C@H]12 (racemic)
52 | > 1000 | C=C1C=CC(=O)[C@@H]2[C@H](Cc3cc(OC)c(OC)c(OC)c3)CC[C@H]12 (racemic)
53 | 2.45 | C=C1C=CC(=O)[C@@H]2[C@H](Cc3ccc(OC)c(F)c3)CC[C@H]12 (racemic)
54 | 739 | CC=C1C=CC(=O)[C@@H]2[C@H](Cc3ccc(OC)c(O)c3)CC[C@H]12 (racemic)
55 | 428 | C=C1C=CC(=O)[C@@H]2[C@H](Cc3ccc(F)c(F)c3)CC[C@H]12 (racemic)
56 | 244 | C=C1C=CC(=O)[C@@H]2[C@H](Cc3ccc(OC)c(O)c3)CC[C@H]12 (racemic)
57 | 92.8 | C=C[C@@H]1C[C@@H](Cc2ccc(OC)c(O)c2)[C@H]2C(=O)C=CC(=C)[C@H]21 (racemic)
58 | 219 | C=C1C=CC(=O)[C@@H]2[C@H](Cc3ccc(OCOC)cc3)CC[C@H]12 (racemic)
59 | 75.7 | C=C1C=CC(=O)[C@@H]2[C@H](Cc3ccc(OCOC)c(F)c3)CC[C@H]12 (racemic)
60 | > 1000 | COc1ccc(C[C@@H]2CC[C@@H]3CC=CC(=O)[C@@H]32)cc1O (racemic)
61 | 218 | C=C1C=CC(=O)[C@@H]2[C@H](Cc3ccc(O)cc3)CC[C@H]12 (racemic)
62 | 547 | C=C1C=CC(=O)[C@@H]2[C@H](Cc3ccccc3)CC[C@H]12 (racemic)

Each compound was assayed on KB (assay: Antiproliferative activity against human KB cells assessed as cell viability after 72 hrs by CellTiter96 assay). Conditions: not given.
Type: functional, cell-based

Row | IC50 [nM] | SMILES
63 | 156 | C=C1C=CC(=O)[C@@H]2[C@H](Cc3ccc(O)c(F)c3)CC[C@H]12 (racemic)
64 | > 1000 | C=C1C=CC(=O)[C@@H]2[C@H](Cc3cc(OC)c(OC)c(OC)c3)CC[C@H]12 (racemic)
65 | 2.77 | C=C1C=CC(=O)[C@@H]2[C@H](Cc3ccc(OC)c(F)c3)CC[C@H]12 (racemic)
66 | 22.6 | CC=C1C=CC(=O)[C@@H]2[C@H](Cc3ccc(OC)c(O)c3)CC[C@H]12 (racemic)
67 | 478 | C=C1C=CC(=O)[C@@H]2[C@H](Cc3ccc(F)c(F)c3)CC[C@H]12 (racemic)
68 | 4.94 | C=C1C=CC(=O)[C@@H]2[C@H](Cc3ccc(OC)c(O)c3)CC[C@H]12 (racemic)
69 | 1.59 | C=C[C@@H]1C[C@@H](Cc2ccc(OC)c(O)c2)[C@H]2C(=O)C=CC(=C)[C@H]21 (racemic)
70 | 208 | C=C1C=CC(=O)[C@@H]2[C@H](Cc3ccc(OCOC)cc3)CC[C@H]12 (racemic)
71 | 76.6 | C=C1C=CC(=O)[C@@H]2[C@H](Cc3ccc(OCOC)c(F)c3)CC[C@H]12 (racemic)
72 | > 1000 | COc1ccc(C[C@@H]2CC[C@@H]3CC=CC(=O)[C@@H]32)cc1O (racemic)
73 | 68.8 | C=C1C=CC(=O)[C@@H]2[C@H](Cc3ccc(O)cc3)CC[C@H]12 (racemic)
74 | 591 | C=C1C=CC(=O)[C@@H]2[C@H](Cc3ccccc3)CC[C@H]12 (racemic)

These compounds were tested on MCF7 (assay: Ratio of ottelione A IC50 to compound IC50 for human MCF7 cells after 72 hrs by CellTiter96 assay). Conditions: not given.
Type: functional

Row | SMILES | Ratio IC50
75 | C=C1C=CC(=O)[C@@H]2[C@H](Cc3ccc(OC)c(F)c3)CC[C@H]12 (racemic) | 6

These compounds were tested against T1, Tubulin (Sus scrofa) (assay: Inhibition of pig neuronal tubulin polymerization at 10 uM by fluorescence analysis). Conditions: not given.
Type: protein assay

Row | inhibition | SMILES
76 | Active | C=C1C=CC(=O)[C@@H]2[C@H](Cc3ccc(OC)c(F)c3)CC[C@H]12 (racemic)
77 | Active | C=C1C=CC(=O)[C@@H]2[C@H](Cc3ccc(OC)c(O)c3)CC[C@H]12 (racemic)
78 | Active | C=C[C@@H]1C[C@@H](Cc2ccc(OC)c(O)c2)[C@H]2C(=O)C=CC(=C)[C@H]21 (racemic)

What follows are compounds tested on HCT-116 (assay: Antiproliferative activity against human HCT116 cells assessed as cell viability after 72 hrs by CellTiter96 assay). Conditions: HCT-116, 72 h.
Type: functional, cell-based

Row | IC50 [nM] | SMILES
79 | 126 | C=C1C=CC(=O)[C@@H]2[C@H](Cc3ccc(O)c(F)c3)CC[C@H]12 (racemic)
80 | > 1000 | C=C1C=CC(=O)[C@@H]2[C@H](Cc3cc(OC)c(OC)c(OC)c3)CC[C@H]12 (racemic)
81 | 1.11 | C=C1C=CC(=O)[C@@H]2[C@H](Cc3ccc(OC)c(F)c3)CC[C@H]12 (racemic)
82 | 14 | CC=C1C=CC(=O)[C@@H]2[C@H](Cc3ccc(OC)c(O)c3)CC[C@H]12 (racemic)
83 | 235 | C=C1C=CC(=O)[C@@H]2[C@H](Cc3ccc(F)c(F)c3)CC[C@H]12 (racemic)
84 | 3.01 | C=C1C=CC(=O)[C@@H]2[C@H](Cc3ccc(OC)c(O)c3)CC[C@H]12 (racemic)
85 | 0.74 | C=C[C@@H]1C[C@@H](Cc2ccc(OC)c(O)c2)[C@H]2C(=O)C=CC(=C)[C@H]21 (racemic)
86 | 129 | C=C1C=CC(=O)[C@@H]2[C@H](Cc3ccc(OCOC)cc3)CC[C@H]12 (racemic)
87 | 77.4 | C=C1C=CC(=O)[C@@H]2[C@H](Cc3ccc(OCOC)c(F)c3)CC[C@H]12 (racemic)
88 | > 1000 | COc1ccc(C[C@@H]2CC[C@@H]3CC=CC(=O)[C@@H]32)cc1O (racemic)
89 | 38.5 | C=C1C=CC(=O)[C@@H]2[C@H](Cc3ccc(O)cc3)CC[C@H]12 (racemic)
90 | 257 | C=C1C=CC(=O)[C@@H]2[C@H](Cc3ccccc3)CC[C@H]12 (racemic)
